From patent US8623429B2, “Stabilized anthocyanin compositions” (Omnica GmbH, priority 2007, dated 2014)

Tests used:
Type in all cases: physicochemical
[1] = Example 3: stability of black currant extract anthocyanosides, 4 hours at 37° C., pH 7.0, with/without DHLA, GSH or L-cysteine (HPLC)
Description: (§1) Sample a) 60 mg black currant extract [35% anthocyanosides] (0.037 mmol anthocyanosides expressed as cyanidin-3-O-rutinoside) were added to a 100 ml flask and filled to volume with sodium phosphate buffer (5% [w/w], pH=7.0) and stirred until dissolution was complete. A 1 ml sample was taken immediately, acidified with formic acid to pH=1.0 and analyzed by HPLC for the content of anthocyanosides (Fresh Sample). The remaining solution was kept for 4 hours at 37° C. (water bath) with stirring. Thereafter samples (Blank sample), representing unprotected degradation, were taken and acidified.
(§2) Sample b) 20 mg reduced L-glutathione (0.065 mmol) were added to a 100 ml flask with 60 ml sodium phosphate buffer (5% [w/w], pH=7.0) and stirred until dissolution was complete. 60 mg black currant extract [35% anthocyanosides] (0.037 mmol anthocyanosides expressed as cyanidin-3-O-rutinoside) were then added and the flask was filled to volume with sodium phosphate buffer (5% [w/w], pH=7.0) and kept for 4 hours at 37° C. (water bath) with stirring.
as §2, with “Sample c)” for “Sample b)”, “mg dihydrolipoic acid (0.096” for “mg reduced L-glutathione (0.065”, “was completed.” for “was complete.”, “were” for “were then”, “added to” for “added and”, “the flask,” for “the flask was”
as §2, with “Sample d)” for “Sample b)”, “mg L-cysteine acid (0.165” for “mg reduced L-glutathione (0.065”, “were” for “were then”, “added to” for “added and”, “the flask,” for “the flask was”
After 4 hours samples were taken, acidified immediately with formic acid to pH=1.0 and analyzed by HPLC for the content of anthocyanosides. Degradation is expressed as decrease in peak area of individual peaks (calculated as % left after 4 hours).
(§3) Samples were prepared as outlined below in HPLC Analytical Method. Test stability samples were immediately acidified (to block degradation) and injected undiluted following the detailed description provided below.
HPLC Analytical Method (Materials, Instruments and Methods): […]

[2] = Example 5: degradation over time of black currant anthocyanosides at 37° C., pH 7.0, with/without GSH (HPLC); conditions: pH 7.0, 37° C.; for %-residual anthocyanosides (% left): 4 hours
Description: as §1, with “flask,” for “flask and”, “anthocyanosides.” for “anthocyanosides (Fresh Sample).”, “kept” for “kept for 4 hours”, “stirring and 1 ml” for “stirring. Thereafter”, “Samples),” for “sample),”, “every 15 minutes. The samples were analyzed for selected anthocyanosides by HPLC.” for “and acidified.”
as §2, with “added,” for “then added and”, “for” for “for 4 hours”, “stirring. Every 15 minutes 1 ml samples were taken and analyzed for selected anthocyanosides by HPLC.” for “stirring.”
as §3

[3] = Example 8: oxidation of GSH to GSSG in buffer pH 7.0 at 37° C. with/without bilberry extract (HPLC); conditions: buffer pH 7.0, 37° C.
Description: Sample a) 60 mg GSH (0.192 mmol) were placed into a 100 ml flask, dissolved and filled up to volume with sodium phosphate buffer (5% [w/w], pH=7.0). The sample was kept with stirring at 37° C. Samples were taken immediately after dissolution and after 1, 2, 3 and 4 hours of incubation. The samples were analyzed by HPLC for GSH and GSSG (representing the oxidized form of GSH).
Sample b) 60 mg reduced L-glutathione (0.192 mmol) were added to a 100 ml flask with 60 ml sodium phosphate buffer (5% [w/w], pH=7.0) and stirred until dissolution was complete. 60 mg bilberry extract [37% anthocyanosides] (0.048 mmol expressed as cyanidin-3-O-glucoside) were added, the flask was filled to volume with sodium phosphate buffer (5% [w/w], pH=7.0) and kept at 37° C. (water bath) with stirring. Samples were taken immediately after dissolution and after 1, 2, 3 and 4 hours of incubation. The samples were analyzed by HPLC for GSH and GSSG (representing the oxidized form of GSH).
as §3

[4] = unprotected, pH 7.0, 37° C., 4 hours

C[C@@H]1O[C@@H](OC[C@H]2O[C@@H](Oc3cc4c(O)cc(O)cc4[o+]c3-c3cc(O)c(O)c(O)c3)[C@H](O)[C@@H](O)[C@@H]2O)[C@H](O)[C@H](O)[C@H]1O [Dp-3-O-Rut, Delphinidin-3-O-rutinoside]
Peak Area, Fresh solution ([1]; black currant extract 60 mg/100 ml buffer pH 7.0, fresh sample): 5207
% left, DHLA 20 mg ([1]; pH 7.0, 37° C., 4 hours): 51.7%
% left, GSH 20 mg ([1]; pH 7.0, 37° C., 4 hours): 53.1%
% left, L-cysteine 20 mg ([1]; pH 7.0, 37° C., 4 hours): 38.0%
Peak Area, DHLA 20 mg ([1]; pH 7.0, 37° C., 4 hours): 2692
Peak Area, GSH 20 mg ([1]; pH 7.0, 37° C., 4 hours): 2764
Peak Area, L-cysteine 20 mg ([1]; pH 7.0, 37° C., 4 hours): 1975
% left, Blank [1, 4]: 12.0%
Peak Area, Blank [1, 4]: 626.2
Peak Area ([2]; Blank sample, 0:00 h): 5207.5
Peak Area ([2]; Blank sample, 0:15 h): 3604.2
Peak Area ([2]; Blank sample, 0:30 h): 3366.5
Peak Area ([2]; Blank sample, 0:45 h): 2787.9
Peak Area ([2]; Blank sample, 1:00 h): 2660.6
Peak Area ([2]; Blank sample, 1:30 h): 2299.5
Peak Area ([2]; Blank sample, 1:45 h): 2291.6
Peak Area ([2]; Blank sample, 2:00 h): 1825.7
Peak Area ([2]; Blank sample, 2:15 h): 1747.2
Peak Area ([2]; Blank sample, 2:30 h): 1552.5
Peak Area ([2]; Blank sample, 2:45 h): 1442.9
Peak Area ([2]; Blank sample, 3:00 h): 1235.4
Peak Area ([2]; Blank sample, 3:15 h): 1166.0
Peak Area ([2]; Blank sample, 3:30 h): 907.2
Peak Area ([2]; Blank sample, 3:45 h): 891.1
Peak Area ([2]; Blank sample, 4:00 h): 626.2
%-residual anthocyanosides (% left) ([2]; Blank): 12%
Peak Area ([2]; GSH protected sample (20 mg), 0:00 h): 5201.3
Peak Area ([2]; GSH protected sample (20 mg), 0:15 h): 4584.2
Peak Area ([2]; GSH protected sample (20 mg), 0:45 h): 4275.7
Peak Area ([2]; GSH protected sample (20 mg), 1:00 h): 4273.1
Peak Area ([2]; GSH protected sample (20 mg), 1:15 h): 4168.7
Peak Area ([2]; GSH protected sample (20 mg), 1:45 h): 3749.9
Peak Area ([2]; GSH protected sample (20 mg), 2:00 h): 3813.3
Peak Area ([2]; GSH protected sample (20 mg), 2:15 h): 3544.9
Peak Area ([2]; GSH protected sample (20 mg), 2:45 h): 3199.5
Peak Area ([2]; GSH protected sample (20 mg), 3:00 h): 3327.2
Peak Area ([2]; GSH protected sample (20 mg), 3:15 h): 2993.9
Peak Area ([2]; GSH protected sample (20 mg), 3:45 h): 2761.0
Peak Area ([2]; GSH protected sample (20 mg), 4:00 h): 2763.6
Peak Area ([2]; GSH protected sample (20 mg), 4:15 h): 2579.8
%-residual anthocyanosides (% left) ([2]; GSH-protected): 53%

N[C@@H](CCC(=O)N[C@@H](CS)C(=O)NCC(=O)O)C(=O)O [GSH, reduced L-glutathione]
Peak Area ([3]; GSH + bilberry Sample, 0 hours): 4760
peak area Ratio % ([3]; GSH + bilberry Sample, 0 hours): 92.3%
Peak Area ([3]; GSH + bilberry Sample, 1 hour): 4071
peak area Ratio % ([3]; GSH + bilberry Sample, 1 hour): 79.0%
Peak Area ([3]; GSH + bilberry Sample, 2 hours): 3378
peak area Ratio % ([3]; GSH + bilberry Sample, 2 hours): 65.5%
Peak Area ([3]; GSH + bilberry Sample, 3 hours): 3045
peak area Ratio % ([3]; GSH + bilberry Sample, 3 hours): 59.1%
Peak Area ([3]; GSH + bilberry Sample, 4 hours): 2461
peak area Ratio % ([3]; GSH + bilberry Sample, 4 hours): 47.7%
Peak Area ([3]; GSH Sample, 0 hours): 4760
peak area Ratio % ([3]; GSH Sample, 0 hours): 92.3%
Peak Area ([3]; GSH Sample, 1 hour): 4744
peak area Ratio % ([3]; GSH Sample, 1 hour): 92.0%
Peak Area ([3]; GSH Sample, 2 hours): 4220
peak area Ratio % ([3]; GSH Sample, 2 hours): 81.9%
Peak Area ([3]; GSH Sample, 3 hours): 4053
peak area Ratio % ([3]; GSH Sample, 3 hours): 78.6%
Peak Area ([3]; GSH Sample, 4 hours): 3777
peak area Ratio % ([3]; GSH Sample, 4 hours): 73.3%
